Results reported in paper PMC10385977, “On the Road towards Small-Molecule Programmed Cell Death 1 Ligand 1 Positron Emission Tomography Tracers: A Ligand-Based Drug Design Approach” (Pharmaceuticals, 2023).
Read-outs that look alike come from different tables or passages of the source. Positions of bridges follow the written chain, without caps; N, C: chain ends. Non-standard residues stand in square brackets, D forms with d. Residues, ends and D or L forms follow the SMILES beside them. NMeNle = CCCC[C@H](NC)C(=O)O; NMeA = CN[C@@H](C)C(=O)O; Sar = CNCC(=O)O

Key:
human PD-L1 [1] = target: T1, human PD-L1 (Homo sapiens, UniProt Q9NZQ7); experiment: HTRF PD-1/PD-L1 Binding Assay Kit (Cisbio); conditions: for BEI (binding efficiency index): BEI = −logIC50/(molecular weight/1000); for LE (ligand efficiency): LE = −1.4(logIC50)/Nheavy atoms; for LELP (ligand-efficiency-dependent lipophilicity efficiency): LELP = µHPLC logPOWpH 7.4/LE; for LLE (ligand lipophilicity efficiency): LLE = −logIC50 − µHPLC logPOWpH 7.4
T1 construct: purchased Cisbio Bioassays SAS 64PD1PEG
T1 sequence (Q9NZQ7 19-238 limits assumed): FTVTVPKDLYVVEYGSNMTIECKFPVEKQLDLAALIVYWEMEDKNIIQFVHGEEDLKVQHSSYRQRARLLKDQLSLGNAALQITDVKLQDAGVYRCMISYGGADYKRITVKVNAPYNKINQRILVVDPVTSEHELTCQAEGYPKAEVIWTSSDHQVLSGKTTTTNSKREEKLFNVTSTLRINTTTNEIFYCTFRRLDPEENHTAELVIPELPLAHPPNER

human PD-L1 [2] = target: T1, human PD-L1; design: method as in doi:10.14205/2309-4435.2013.01.01.6
[3] = HPLC lipophilicity measurement (µHPLC logPOWpH 7.4, logD); type: physicochemical; conditions: HPLC on an apHera column (retention time method); pH 7.4, HPLC method, mean ± SD
Protocol: An equilibration time of 2 min before measurements was set. Solvent “A” consisted of methanol (Merck KGaA, Darmstadt, Germany) and solvent “B” of 10 mM sodium phosphate buffer pH 7.4. […] The measurements of lipophilicity of precursors and products were performed according to the HPLC method of Donovan and Pescatore and Vraka et al.. […] Three logP values of the reference substances were taken from the literature, resulting in a mean logP value of the analyte ( μHPLC logPOWpH 7.4analyte) . Furthermore, the values were compared to calculated logP (clogP) and topological polar surface area (tPSA) values from ChemDraw 20.1 (PerkinElmer, Inc., Waltham, MA, USA) as well as clogDpH7.4 values from MarvinSketch 22.13 (ChemAxon Ltd., Budapest, Hungary).

hPD-L1 = system: hPD-L1; design: method as in earlier work; conditions: HTRF assay; cited from earlier work
[4] = In-solution stability in 1:1 DMSO/HEPES buffer (HPLC); conditions: for remained intact: within the 20-day time period; for decomposition of the parent compound: 20 days
[5] = Metabolic stability in human liver microsomes; type: in vitro ADME; conditions: incubation for 40 min
Protocol: Metabolic stability was assessed using pooled, mixed gender human liver microsomes (HLMs) (Corning, Corning, NY, USA) according to the supplied protocol. In short, 15 µL of HLM (20 mg/mL), 15 µL of NADPH regenerating system solution A (Corning, Corning, NY, USA), 3 µL of solution B (Corning, Corning, NY, USA) and 257 µL of a 1:10 dilution of 10× PBS concentrate (MORPHISTO, Offenbach am Main, Germany) were pre-incubated at 37 °C for 10 min. Aliquots were drawn 0, 10, 20, 30 and 40 min after addition of 10 µL radiotracer, subsequently quenched with the same amount of MeCN, centrifuged for 4 min at 21,500× g and analyzed by HPLC setup 3.

| chromatographic logD [3] | remained intact [4] | BEI (binding efficiency index) (human PD-L1 [1]) | LE (ligand efficiency) (human PD-L1 [1]) [kcal/mol/Heavy Atom] | LELP (ligand-efficiency-dependent lipophilicity efficiency) (human PD-L1 [1]) | LLE (ligand lipophilicity efficiency) (human PD-L1 [1]) | IC50 (human PD-L1 [1]; read-out: IC50 (This Work)) [µM] | decomposition of the parent compound [4] | Compound | other results |
| --- | --- | --- | --- | --- | --- | --- | --- | --- | --- |
| 4.13 ± 0.16 |  | 14.7 | 0.28 | 14.8 | 2.2 | 0.43 ± 0.062 | less than 2% | COc1nc(OCc2cccc(-c3ccccc3)c2C)ccc1CN(C)CCNC(C)=O [Substance 2a, N-(2-(((2-Methoxy-6-((2-methyl-[1,1′-biphenyl]-3-yl)methoxy)pyridin-3-yl)methyl)(methyl)amino)ethyl)acetamide] | fold reduced affinity compared to lead structure 2 (human PD-L1 [1]; ratio of HTRF IC50 values): 4.3 fold |
| 3.97 ± 0.13 | over 85% | 14.5 | 0.27 | 14.4 | 2.3 | 0.524 ± 0.067 |  | COc1nc(OCc2cccc(-c3ccccc3)c2C)ccc1CNCCN(C)C(C)=O [Substance 2b, N-(2-(((2-Methoxy-6-((2-methyl-[1,1′-biphenyl]-3-yl)methoxy)pyridin-3-yl)methyl)amino)ethyl)-N-methylacetamide] |  |
| 4.28 ± 0.18 |  | 13.1 | 0.25 | 17.1 | 1.6 | 1.31 ± 0.185 | less than 2% | COc1nc(OCc2cccc(-c3ccccc3)c2C)ccc1CN(C)CCN(C)C(C)=O [Substance 2c, N-(2-(((2-Methoxy-6-((2-methyl-[1,1′-biphenyl]-3-yl)methoxy)pyridin-3-yl)methyl)(methyl)amino)ethyl)-N-methylacetamide] |  |
| 4.23 ± 0.17 |  | 9.9 | 0.19 | 22.2 | 0.8 | 9.88 ± 1.39 | less than 2% | COc1nc(OCc2cccc(-c3ccccc3)c2C)ccc1CN(CCNC(C)=O)C(=O)OCCF [Substance 2d, 2-Fluoroethyl (2-Acetamidoethyl)((2-methoxy-6-((2-methyl-[1,1′-biphenyl]-3-yl)methoxy)pyridin-3-yl)methyl)carbamate] | dose-response curve in HTRF assay (human PD-L1 [1]; HTRF binding curves): No full dose response curves were observed |

Continued, compound first:

| Compound | chromatographic logD [3] | remained intact [4] | BEI (binding efficiency index) (human PD-L1 [1]) | LE (ligand efficiency) (human PD-L1 [1]) [kcal/mol/Heavy Atom] | LELP (ligand-efficiency-dependent lipophilicity efficiency) (human PD-L1 [1]) | LLE (ligand lipophilicity efficiency) (human PD-L1 [1]) | IC50 (human PD-L1 [1]; read-out: IC50 (This Work)) [µM] | decomposition of the parent compound [4] | other results |
| --- | --- | --- | --- | --- | --- | --- | --- | --- | --- |
| CCCC[C@H]1C(=O)N(C)[C@@H](CCCC)C(=O)N[C@@H](CCCNC(=N)N)C(=O)N[C@H](C(=O)NCC(N)=O)CSCC(=O)N[C@@H](Cc2ccccc2)C(=O)N(C)[C@@H](C)C(=O)N[C@@H](CC(N)=O)C(=O)N2CCC[C@H]2C(=O)N[C@@H](Cc2c[nH]cn2)C(=O)N[C@@H](CC(C)C)C(=O)N(C)CC(=O)N[C@@H](Cc2c[nH]c3ccccc23)C(=O)N[C@@H](CO)C(=O)N[C@@H](Cc2c[nH]c3ccccc23)C(=O)N1C [Inhibitor 3, reference compound] ({CH2CO}-F[NMeA]NPHL[Sar]WSW[NMeNle][NMeNle]RCG-NH2; thioether N-14; N-terminus and C-terminus assumed) |  |  |  |  |  |  |  |  | IC50 (human PD-L1 [1]): 0.113 ± 0.045 µM; IC50 (human PD-L1 [2]; read-out: IC50 (Cisbio); HTRF assay, vendor value; cited from earlier work): 0.146 µM |
| COc1cc(OCc2cccc(-c3ccccc3)c2C)cc(OC)c1CN1CCCC[C@H]1C(=O)O [Substance 1, (S)-1-(2,6-dimethoxy-4-((2-methyl-[1,1′-biphenyl]-3-yl)methoxy)benzyl)piperidine-2-carboxylic acid, reference compound] | 3.16 ± 0.16 | over 85% |  |  |  |  |  |  | IC50 (hPD-L1): […] |
| COC(=O)[C@@H]1CCCCN1Cc1c(OC)cc(OCc2cccc(-c3ccccc3)c2C)cc1OC [Substance 1a, Methyl (S)-1-(2,6-Dimethoxy-4-((2-methyl-[1,1′-biphenyl]-3-yl)methoxy)benzyl)piperidine-2-carboxylate] | 4.9 ± 0.27 | over 85% | 10.7 | 0.20 | 24.0 | 0.3 | 5.76 ± 0.613 |  |  |
| COc1cc(OCc2cccc(-c3ccccc3)c2C)cc(OC)c1CN1CCCC[C@H]1C(=O)OCCF [Substance 1b, 2-Fluoroethyl (S)-1-(2,6-Dimethoxy-4-((2-methyl-[1,1′-biphenyl]-3-yl)methoxy)benzyl)piperidine-2-carboxylate] | 5.02 ± 0.28 | over 85% | 11.4 | 0.22 | 22.9 | 0.9 | 1.44 ± 0.144 |  |  |
| COc1nc(OCc2cccc(-c3ccccc3)c2C)ccc1CNCCNC(C)=O [Substance 2, N-(2-(((2-methoxy-6-((2-methyl-[1,1′-biphenyl]-3-yl)methoxy)pyridin-3-yl)methyl)amino)ethyl)acetamide, reference compound] | 3.88 ± 0.12 |  |  |  |  |  |  | less than 2% |  |
| COc1nc(OCc2cccc(-c3ccccc3)c2C)ccc1CN([11CH3])CCNC(C)=O [[^11C]2a] |  |  |  |  |  |  |  |  | intact tracer [5]: ~ 90% |
| Atezolizumab: anti-PD-L1 antibody, positive control (MedChemExpress) |  |  |  |  |  |  |  |  | IC50 (human PD-L1 [1]; HTRF PD-1/PD-L1 binding assay, mean ± SD, three experiments, read-out: IC50 (This Work)): 0.00407 ± 0.00042 µM; IC50 (human PD-L1 [2]; HTRF assay, vendor value; read-out: IC50 (Cisbio); cited from earlier work): 0.00384 µM |
